Data from patent publication US20260069626A1, “Compositions and Methods to Protect and Enhance Structural and Functional Integrity of the Intestinal Glycocalyx” (Calroy Health Sciences, LLC, priority 2023, published 2026).

Legend:
[1] = tested on: mouse intestinal glycocalyx; assay: DSS-treated mice: WGA-FITC immunofluorescence of colon glycocalyx (Example 3); format: in vivo; details: for Average Florescence Intensity of Mouse Intestinal Glycocalyx after WGA-FITC Staining (AVI): oral mg/kg/day per Table IV: single agents 100, 3′-SL + 6′-SL 100 each, HMOs 50 each + COS 100; for mouse intestinal glycocalyx (FIG. 8, FIG. 9): oral, doses of Table IV
Protocol: Male C57BL/6J mice (18-20 g) of 6 weeks old were housed under controlled conditions with a constant temperature (23±2° C.), stable humidity, and a 12-hour light/dark cycle. After a one-week acclimatization period, the mice were randomly divided into 7 groups, with 5 mice per group: Control, DSS, DSS+3′-SL, DSS+6′-SL, DSS+5-ASA, DSS+6′-SL+3′-SL, and DSS+HMOs+COS. The control group received sterile water for 19 days. The DSS group was given 4% (wt/vol) DSS in their drinking water from days 8-14, with daily oral gavage of sterile water for 11 days. The other groups were treated with 3% DSS in their drinking water from days 8-14, along with oral administration of various functional glycans (mg/kg/day) of COS up to the 19th day (See Experimental Design in Table III). The DSS solution was replaced every two days to maintain its bioactivity. Mouse body weight, stool consistency, and rectal bleeding were monitored daily, alongside observations of coat sheen, mental state, and activity levels.
Immunofluorescence staining of mouse colon tissue was performed using the following procedure. Paraffin sections were prepared from the distal colon, 1 cm from the anus. Deparaffinization and rehydration were performed with xylene and ethanol, as follows: xylene (5 min×2), 100% ethanol (5 min×2), 90% ethanol (5 min×1), 80% ethanol (5 min×1), 70% ethanol (5 min×1), and deionized water (10 s). Endogenous peroxidase activity was quenched with 0.75% hydrogen peroxide for 10 minutes, followed by PBS washes. Antigen retrieval was performed by boiling the sections in 0.01 mol/L sodium citrate for 30 minutes. For WGA staining, sections were incubated overnight at 4° C. with 0.1 μg/μL FITC-WGA in PBS (40 μL per sample). After washing with PBS, nuclei were counterstained with DAPI and sections were mounted with an anti-fade medium. The stained sections were visualized under a fluorescence microscope, and the colonic mucosal glycocalyx was quantified using ImageJ software.

[2] = tested on: Caco-2 intestinal epithelial cell glycocalyx; assay: Prevention/repair of DSS damage to Caco-2 glycocalyx, microfluidic chip, WGA-FITC (Example 2); format: cell-based; details: 2% DSS, single agents 200 μg/ml, 6′-SL and 3′-SL each 100 μg/ml, 100 μg/ml COS with 50 μg/ml each of 6′-SL, 2′-FL
Protocol: Using the same microfluidic chip model in Example 1, different functional glycans of RS, COS and hMO, and some combinations were evaluated for their capability to prevent and repair the damages of Caco-2 intestinal epithelial cell glycocalyx caused by DSS. […] In addition to DSS, a positive control of 5-aminosalicylic acid (5-ASA), RS, COS, different hMOS, and a combination of hMOs and COS at different concentrations in phosphate-buffered saline (PBS) with water were introduced into microfluidic chips for testing their effects on the intestinal glycocalyx in the presence of DSS.
FIG. 1 depicts the images of the intestinal epithelial cell glycocalyx and nucleus stained by WGA-FITC individually and together. […] Briefly, 2% DSS caused a significant decrease of intestinal glycocalyx as measured by WGA fluorescence intensity.

[3] = tested on: C57BL/6J mice treated with DSS; assay: DSS-treated mice: body weight and Disease Activity Index (Example 3); format: in vivo, mouse; details: oral, doses of Table IV
Protocol: Male C57BL/6J mice (18-20 g) of 6 weeks old were housed under controlled conditions with a constant temperature (23±2° C.), stable humidity, and a 12-hour light/dark cycle. After a one-week acclimatization period, the mice were randomly divided into 7 groups, with 5 mice per group: Control, DSS, DSS+3′-SL, DSS+6′-SL, DSS+5-ASA, DSS+6′-SL+3′-SL, and DSS+HMOs+COS. The control group received sterile water for 19 days. The DSS group was given 4% (wt/vol) DSS in their drinking water from days 8-14, with daily oral gavage of sterile water for 11 days. […] Mouse body weight, stool consistency, and rectal bleeding were monitored daily, alongside observations of coat sheen, mental state, and activity levels. The Disease Activity Index (DAI) was used to assess colitis severity, calculated as the mean of the scores for weight loss, stool consistency, and rectal bleeding as described below. Mice were weighed daily at the same time, with the percentage of weight loss compared to the end of the acclimation period: <1% scored 0; 1-5% scored 1; 5-10% scored 2; 10-20% scored 3; >20% scored 4. Stool consistency was also evaluated daily: normal stool scored 0; soft but formed stool scored 1; paste-like stool scored 2; liquid stool scored 3. […] The DAI was calculated as the average of these three scores. […]

SMILES | Average Florescence Intensity of Mouse Intestinal Glycocalyx after WGA-FITC Staining (AVI) [1] | mouse intestinal glycocalyx (FIG. 8, FIG. 9) [1] | damage of the intestinal glycocalyx caused by DSS (WGA fluorescence intensity, FIG. 1-2) [2] | DAI at the end of the study compared to DSS only (FIG. 6) [3] | body weight at the end of the study compared to DSS only (FIG. 4) [3]
CC(=O)N[C@H]1[C@H]([C@H](O)[C@H](O)CO)O[C@@](O[C@H]2[C@@H](O)[C@@H](CO)O[C@@H](O[C@H]3[C@H](O)[C@@H](O)C(O)O[C@@H]3CO)[C@@H]2O)(C(=O)O)C[C@@H]1O (stereo partly drawn) [3′-SL, 3′-sialyllactose] | 2.45 | increased |  |  | 
Nc1ccc(O)c(C(=O)O)c1 [5-ASA, 5-aminosalicylic acid, reference compound] | 2.56 |  | significantly prevented the damage | significantly reduced | significant increase
CC(=O)N[C@H]1[C@H]([C@H](O)[C@H](O)CO)O[C@@](OC[C@H]2O[C@@H](O[C@H]3[C@H](O)[C@@H](O)[C@H](O)O[C@@H]3CO)[C@H](O)[C@@H](O)[C@H]2O)(C(=O)O)C[C@@H]1O [6′-SL, 6′-sialyllactose] | 2.75 | increased | significantly prevented the damage |  | 
